Tests used:
Test in all cases: radiometric filter-binding kinase assay
[1] = target: ABL1 (human) (UniProt P00519)
[2] = target: CDK9 CCNT1 (human) (UniProt P50750+O60563)
[3] = target: CSNK1G2 (human) (UniProt P78368)
[4] = target: DDR2 (human) (UniProt Q16832)
[5] = target: EIF2AK3 (human) (UniProt Q9NZJ5)
[6] = target: IRAK1 (human) (UniProt P51617)
[7] = target: MAP4K3 (human) (UniProt Q8IVH8)
[8] = target: MAP4K5 (human) (UniProt Q9Y4K4)
[9] = target: MAPK7 (human) (UniProt Q13164)
[10] = system: OXSR1 (human), O95747 [T185E]
[11] = target: PDGFRA (human) (UniProt P16234)
[12] = target: PLK1 (human) (UniProt P53350)
[13] = target: PRKAA1 PRKAB2 PRKAG1 (human) (UniProt O43741+Q13131+P54619)
[14] = target: PRKCG (human) (UniProt P05129)
[15] = target: PTK6 (human) (UniProt Q13882)
[16] = target: SIK2 (human) (UniProt Q9H0K1)
[17] = target: SIK3 (human) (UniProt Q9Y2K2)
[18] = target: STK16 (human) (UniProt O75716)
[19] = target: STK24 (human) (UniProt Q9Y6E0)
[20] = target: STK33 (human) (UniProt Q9BYT3)
[21] = target: TEK (human) (UniProt Q02763)
[22] = target: TESK1 (human) (UniProt Q15569)
[23] = system: TGFBR1 (human), P36897 [T204D]
[24] = target: TLK1 (human) (UniProt Q9UKI8)
[25] = target: TSSK1B (human) (UniProt Q9BXA7)
[26] = target: TTBK1 (human) (UniProt Q5TCY1)
[27] = target: TTBK2 (human) (UniProt Q6IQ55)
[28] = target: ULK1 (human) (UniProt O75385)
[29] = target: ULK2 (human) (UniProt Q8IYT8)
[30] = target: WNK1 (human) (UniProt Q9H4A3)
[31] = target: ZAP70 (human) (UniProt P43403)
Chain of ZAP70 (human) (P43403 whole entry, looked up): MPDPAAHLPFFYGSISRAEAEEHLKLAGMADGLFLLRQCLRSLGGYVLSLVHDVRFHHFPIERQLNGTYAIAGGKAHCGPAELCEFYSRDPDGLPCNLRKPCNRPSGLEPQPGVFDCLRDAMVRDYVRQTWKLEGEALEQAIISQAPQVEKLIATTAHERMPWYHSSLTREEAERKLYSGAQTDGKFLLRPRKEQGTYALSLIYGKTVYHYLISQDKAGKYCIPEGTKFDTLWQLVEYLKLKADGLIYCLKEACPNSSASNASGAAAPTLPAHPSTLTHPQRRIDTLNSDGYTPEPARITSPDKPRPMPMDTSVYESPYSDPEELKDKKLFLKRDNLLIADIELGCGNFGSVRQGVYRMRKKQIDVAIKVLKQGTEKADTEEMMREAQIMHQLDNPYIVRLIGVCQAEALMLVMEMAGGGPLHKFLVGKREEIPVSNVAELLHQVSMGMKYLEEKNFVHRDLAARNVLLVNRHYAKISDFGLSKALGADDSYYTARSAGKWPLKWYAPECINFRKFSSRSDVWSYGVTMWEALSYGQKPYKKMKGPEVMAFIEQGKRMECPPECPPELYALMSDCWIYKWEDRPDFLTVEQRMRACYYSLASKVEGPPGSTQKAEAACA

Chain of STK16 (human) (O75716 whole entry, looked up): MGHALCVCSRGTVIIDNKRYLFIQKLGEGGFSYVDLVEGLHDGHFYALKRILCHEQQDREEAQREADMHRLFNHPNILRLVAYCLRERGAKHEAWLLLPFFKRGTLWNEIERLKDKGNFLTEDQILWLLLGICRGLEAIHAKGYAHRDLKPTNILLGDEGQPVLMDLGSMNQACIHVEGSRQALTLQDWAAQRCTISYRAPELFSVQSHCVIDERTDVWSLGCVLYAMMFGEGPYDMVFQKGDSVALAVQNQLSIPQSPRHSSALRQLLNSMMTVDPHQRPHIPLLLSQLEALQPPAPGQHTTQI
Chain of STK24 (human) (Q9Y6E0 whole entry, looked up): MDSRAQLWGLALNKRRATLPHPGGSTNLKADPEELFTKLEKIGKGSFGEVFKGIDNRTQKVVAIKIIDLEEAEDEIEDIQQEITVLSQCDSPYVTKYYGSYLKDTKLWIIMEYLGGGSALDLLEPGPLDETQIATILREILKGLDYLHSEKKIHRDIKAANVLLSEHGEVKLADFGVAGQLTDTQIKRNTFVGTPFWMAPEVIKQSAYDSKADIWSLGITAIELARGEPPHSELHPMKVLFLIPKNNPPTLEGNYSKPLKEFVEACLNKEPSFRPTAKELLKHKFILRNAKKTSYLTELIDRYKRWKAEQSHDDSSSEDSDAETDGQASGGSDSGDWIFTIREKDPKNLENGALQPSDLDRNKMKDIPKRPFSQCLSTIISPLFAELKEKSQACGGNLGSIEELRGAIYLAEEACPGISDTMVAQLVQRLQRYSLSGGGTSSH
Chain of TTBK1 (human) (Q5TCY1 whole entry, looked up): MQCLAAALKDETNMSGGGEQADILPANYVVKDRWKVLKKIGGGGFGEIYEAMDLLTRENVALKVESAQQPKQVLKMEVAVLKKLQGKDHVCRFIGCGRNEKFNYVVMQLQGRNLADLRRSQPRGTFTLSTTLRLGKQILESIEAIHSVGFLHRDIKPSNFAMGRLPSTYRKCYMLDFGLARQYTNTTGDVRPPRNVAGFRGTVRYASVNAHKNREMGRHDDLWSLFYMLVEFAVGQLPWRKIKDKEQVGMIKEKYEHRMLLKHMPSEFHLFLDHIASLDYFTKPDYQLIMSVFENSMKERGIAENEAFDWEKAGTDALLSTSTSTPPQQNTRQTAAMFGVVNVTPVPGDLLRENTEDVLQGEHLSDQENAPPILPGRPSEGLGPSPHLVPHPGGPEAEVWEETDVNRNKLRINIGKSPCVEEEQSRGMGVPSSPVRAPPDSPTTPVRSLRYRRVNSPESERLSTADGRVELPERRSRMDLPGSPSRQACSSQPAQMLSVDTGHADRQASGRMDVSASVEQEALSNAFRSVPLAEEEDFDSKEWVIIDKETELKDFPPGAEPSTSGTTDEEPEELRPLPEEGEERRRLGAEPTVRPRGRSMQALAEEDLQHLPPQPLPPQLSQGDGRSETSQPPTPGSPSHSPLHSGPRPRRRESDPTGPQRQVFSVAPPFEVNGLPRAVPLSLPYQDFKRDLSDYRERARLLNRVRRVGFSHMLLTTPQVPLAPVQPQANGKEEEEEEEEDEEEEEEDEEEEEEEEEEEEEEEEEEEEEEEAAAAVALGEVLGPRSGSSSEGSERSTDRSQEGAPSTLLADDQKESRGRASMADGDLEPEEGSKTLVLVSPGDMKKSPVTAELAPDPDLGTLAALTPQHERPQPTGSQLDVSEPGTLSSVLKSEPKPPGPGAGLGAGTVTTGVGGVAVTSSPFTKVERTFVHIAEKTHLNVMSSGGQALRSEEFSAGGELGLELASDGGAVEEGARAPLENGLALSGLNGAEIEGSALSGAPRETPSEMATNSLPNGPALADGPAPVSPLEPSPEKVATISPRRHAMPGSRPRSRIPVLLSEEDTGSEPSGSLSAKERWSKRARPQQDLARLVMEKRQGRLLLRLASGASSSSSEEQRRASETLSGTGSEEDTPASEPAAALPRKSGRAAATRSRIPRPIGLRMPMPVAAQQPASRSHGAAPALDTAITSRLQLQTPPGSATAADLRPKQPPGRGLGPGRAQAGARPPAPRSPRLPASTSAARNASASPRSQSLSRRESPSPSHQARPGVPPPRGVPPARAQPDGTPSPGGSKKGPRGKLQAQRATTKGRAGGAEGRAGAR
Chain of MAPK7 (human) (Q13164 whole entry, looked up): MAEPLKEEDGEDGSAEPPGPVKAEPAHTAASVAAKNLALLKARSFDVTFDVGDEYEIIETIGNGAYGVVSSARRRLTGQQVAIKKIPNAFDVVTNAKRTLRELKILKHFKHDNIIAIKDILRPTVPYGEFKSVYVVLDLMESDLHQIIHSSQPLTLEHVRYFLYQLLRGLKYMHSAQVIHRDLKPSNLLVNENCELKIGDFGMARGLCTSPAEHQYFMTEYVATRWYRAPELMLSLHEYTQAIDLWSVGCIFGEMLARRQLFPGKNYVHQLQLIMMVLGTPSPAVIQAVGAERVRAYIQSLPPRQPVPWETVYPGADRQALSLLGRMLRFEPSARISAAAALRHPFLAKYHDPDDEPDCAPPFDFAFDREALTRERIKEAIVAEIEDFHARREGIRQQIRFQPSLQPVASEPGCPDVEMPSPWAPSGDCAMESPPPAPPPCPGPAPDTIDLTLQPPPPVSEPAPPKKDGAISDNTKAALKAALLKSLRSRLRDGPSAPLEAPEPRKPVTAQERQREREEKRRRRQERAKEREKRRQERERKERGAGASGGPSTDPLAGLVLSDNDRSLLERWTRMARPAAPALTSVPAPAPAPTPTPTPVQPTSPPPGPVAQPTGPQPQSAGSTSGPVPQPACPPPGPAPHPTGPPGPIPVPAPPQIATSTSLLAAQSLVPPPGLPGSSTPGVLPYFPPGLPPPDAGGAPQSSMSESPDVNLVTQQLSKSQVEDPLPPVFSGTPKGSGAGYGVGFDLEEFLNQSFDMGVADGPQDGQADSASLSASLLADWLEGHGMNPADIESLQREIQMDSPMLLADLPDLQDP
Chain of TLK1 (human) (Q9UKI8 whole entry, looked up): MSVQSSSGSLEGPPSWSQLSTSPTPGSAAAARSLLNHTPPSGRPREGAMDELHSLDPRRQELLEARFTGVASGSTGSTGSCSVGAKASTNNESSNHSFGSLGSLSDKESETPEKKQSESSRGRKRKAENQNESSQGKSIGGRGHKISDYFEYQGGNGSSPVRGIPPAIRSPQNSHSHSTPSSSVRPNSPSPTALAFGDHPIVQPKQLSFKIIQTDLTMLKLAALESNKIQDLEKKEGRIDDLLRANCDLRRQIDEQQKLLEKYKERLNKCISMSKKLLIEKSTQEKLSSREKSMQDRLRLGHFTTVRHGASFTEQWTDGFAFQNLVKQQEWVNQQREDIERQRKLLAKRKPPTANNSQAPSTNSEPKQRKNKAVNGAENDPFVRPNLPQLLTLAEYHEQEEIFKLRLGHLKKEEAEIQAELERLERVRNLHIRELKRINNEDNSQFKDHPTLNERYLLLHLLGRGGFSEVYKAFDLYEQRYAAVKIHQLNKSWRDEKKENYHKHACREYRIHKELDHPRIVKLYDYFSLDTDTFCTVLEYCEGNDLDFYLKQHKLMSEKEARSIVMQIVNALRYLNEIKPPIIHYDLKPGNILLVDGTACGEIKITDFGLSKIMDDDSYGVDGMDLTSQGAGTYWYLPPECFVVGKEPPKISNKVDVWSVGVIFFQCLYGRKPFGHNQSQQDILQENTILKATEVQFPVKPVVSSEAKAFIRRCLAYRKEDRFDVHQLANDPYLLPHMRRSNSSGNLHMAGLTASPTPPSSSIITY
Chain of OXSR1 (human), O95747 [T185E] (O95747 whole entry T185E, looked up): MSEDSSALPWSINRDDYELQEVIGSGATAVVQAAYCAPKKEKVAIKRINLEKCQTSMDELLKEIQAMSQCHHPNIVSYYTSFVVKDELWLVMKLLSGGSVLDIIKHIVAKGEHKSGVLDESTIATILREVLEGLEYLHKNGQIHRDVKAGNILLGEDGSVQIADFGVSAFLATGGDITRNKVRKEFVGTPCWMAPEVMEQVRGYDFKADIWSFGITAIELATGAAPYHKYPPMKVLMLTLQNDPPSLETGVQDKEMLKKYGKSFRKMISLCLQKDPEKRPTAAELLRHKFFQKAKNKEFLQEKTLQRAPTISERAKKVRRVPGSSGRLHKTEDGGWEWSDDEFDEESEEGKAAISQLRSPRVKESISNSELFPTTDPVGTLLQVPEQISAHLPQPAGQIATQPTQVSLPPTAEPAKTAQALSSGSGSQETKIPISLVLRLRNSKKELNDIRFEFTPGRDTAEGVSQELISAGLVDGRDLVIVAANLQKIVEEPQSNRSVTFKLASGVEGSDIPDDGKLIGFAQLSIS

- residual activity ([1]; compound 0.01 µM): 98%
- residual activity ([1]; compound 0.1 µM): 82%
- residual activity ([1]; compound 1.0 µM): 37%
- residual activity ([2]; compound 0.01 µM): 61%
- residual activity ([2]; compound 0.1 µM): 17%
- residual activity ([2]; compound 1.0 µM): 15%
- residual activity ([3]; compound 0.01 µM): 106%
- residual activity ([3]; compound 0.1 µM): 97%
- residual activity ([3]; compound 1.0 µM): 86%
- residual activity ([4]; compound 0.1 µM): 8%
- residual activity ([4]; compound 1.0 µM): 3%
- residual activity ([5]; compound 0.01 µM): 62%
- residual activity ([5]; compound 0.1 µM): 59%
- residual activity ([5]; compound 1.0 µM): 36%
- residual activity ([6]; compound 0.01 µM): 15%
- residual activity ([6]; compound 0.1 µM): 2%
- residual activity ([6]; compound 1.0 µM): 3%
- residual activity ([7]; compound 0.01 µM): 3%
- residual activity ([7]; compound 0.1 µM): 2%
- residual activity ([7]; compound 1.0 µM): 1%
- residual activity ([8]; compound 0.01 µM): 10%
- residual activity ([8]; compound 0.1 µM): 7%
- residual activity ([8]; compound 1.0 µM): 4%
- residual activity ([9]; compound 0.01 µM): 66%
- residual activity ([9]; compound 0.1 µM): 24%
- residual activity ([9]; compound 1.0 µM): 12%
- residual activity ([10]; compound 0.01 µM): 75%
- residual activity ([10]; compound 0.1 µM): 23%
- residual activity ([10]; compound 1.0 µM): 7%
- residual activity ([11]; compound 0.01 µM): 54%
- residual activity ([11]; compound 0.1 µM): 8%
- residual activity ([11]; compound 1.0 µM): 2%
- residual activity ([12]; compound 0.01 µM): 68%
- residual activity ([12]; compound 0.1 µM): 38%
- residual activity ([12]; compound 1.0 µM): 22%
- residual activity ([13]; compound 0.01 µM): 4%
- residual activity ([13]; compound 0.1 µM): 3%
- residual activity ([13]; compound 1.0 µM): 1%
- residual activity ([14]; compound 0.01 µM): 95%
- residual activity ([14]; compound 0.1 µM): 51%
- residual activity ([14]; compound 1.0 µM): 13%
- residual activity ([15]; compound 0.01 µM): 28%
- residual activity ([15]; compound 0.1 µM): 16%
- residual activity ([15]; compound 1.0 µM): 4%
- residual activity ([16]; compound 0.01 µM): 4%
- residual activity ([16]; compound 0.1 µM): 0%
- residual activity ([16]; compound 1.0 µM): 1%
- residual activity ([17]; compound 0.01 µM): 31%
- residual activity ([17]; compound 0.1 µM): 7%
- residual activity ([17]; compound 1.0 µM): 2%
- residual activity ([18]; compound 0.01 µM): 102%
- residual activity ([18]; compound 0.1 µM): 85%
- residual activity ([18]; compound 1.0 µM): 69%
- residual activity ([19]; compound 0.01 µM): 97%
- residual activity ([19]; compound 0.1 µM): 50%
- residual activity ([19]; compound 1.0 µM): 6%
- residual activity ([20]; compound 0.01 µM): 44%
- residual activity ([20]; compound 0.1 µM): 27%
- residual activity ([20]; compound 1.0 µM): 23%
- residual activity ([21]; compound 0.01 µM): 59%
- residual activity ([21]; compound 0.1 µM): 41%
- residual activity ([21]; compound 1.0 µM): 20%
- residual activity ([22]; compound 0.01 µM): 76%
- residual activity ([22]; compound 0.1 µM): 19%
- residual activity ([22]; compound 1.0 µM): 2%
- residual activity ([23]; compound 0.01 µM): 96%
- residual activity ([23]; compound 0.1 µM): 74%
- residual activity ([23]; compound 1.0 µM): 17%
- residual activity ([24]; compound 0.01 µM): 93%
- residual activity ([24]; compound 0.1 µM): 39%
- residual activity ([24]; compound 1.0 µM): 6%
- residual activity ([25]; compound 0.01 µM): 13%
- residual activity ([25]; compound 0.1 µM): 5%
- residual activity ([25]; compound 1.0 µM): 4%
- residual activity ([26]; compound 0.01 µM): 101%
- residual activity ([26]; compound 0.1 µM): 108%
- residual activity ([26]; compound 1.0 µM): 99%
- residual activity ([27]; compound 0.01 µM): 107%
- residual activity ([27]; compound 0.1 µM): 102%
- residual activity ([27]; compound 1.0 µM): 90%
- residual activity ([28]; compound 0.01 µM): 102%
- residual activity ([28]; compound 0.1 µM): 43%
- residual activity ([28]; compound 1.0 µM): 11%
- residual activity ([29]; compound 0.01 µM): 30%
- residual activity ([29]; compound 0.1 µM): 5%
- residual activity ([29]; compound 1.0 µM): 1%
- residual activity ([30]; compound 0.1 µM): 91%
- residual activity ([30]; compound 1.0 µM): 86%
- residual activity ([31]; compound 0.01 µM): 83%
- residual activity ([31]; compound 0.1 µM): 16%
- residual activity ([31]; compound 1.0 µM): 2%
SMILES: CNC(=O)C1[C@H]2O[C@@](C)([C@@H]1N)n1c3ccccc3c3c4c(c5c6ccccc6n2c5c31)C(=O)NC4 (stereo partly specified)
